According to ChEMBL document CHEMBL3885881, “DrugMatrix”:

Species: Rattus norvegicus
Test: DrugMatrix - Regimen: Daily Repeat
Type: toxicity, organism-based, Sprague-Dawley
Set-up: regimen Daily Repeat, gender Male, age 6-8 weeks
Settings: in vivo, po, route oral GAVAGE, vehicle .5 % CMC; for BASOPHIL / EOSINOPHIL / ERYTHROCYTE COUNT / HEMATOCRIT / HEMOGLOBIN / LEUKOCYTE COUNT / LYMPHOCYTE / MEAN CORPUSCULAR HEMOGLOBIN / MEAN CORPUSCULAR HEMOGLOBIN CONCENTRATION / MEAN CORPUSCULAR VOLUME / MONOCYTE / NEUTROPHIL / PLATELET COUNT: tissue Blood; for ALANINE AMINOTRANSFERASE / ALBUMIN / ALKALINE PHOSPHATASE / ASPARTATE AMINOTRANSFERASE / BLOOD UREA NITROGEN / CARBON DIOXIDE / CHLORIDE / CHOLESTEROL / CREATINE PHOSPHOKINASE / CREATININE / GLUCOSE / LACTATE DEHYDROGENASE / LIPASE / PHOSPHORUS / POTASSIUM / SODIUM / TOTAL BILIRUBIN / TOTAL PROTEIN / URIC ACID: tissue Plasma
[1] = 0 mg/kg, 72 h, dose level Control, time 3 day
[2] = 0 mg/kg, 120 h, dose level Control, time 5 day
[3] = 1200 mg/kg, 72 h, dose level High, time 3 day
[4] = 1200 mg/kg, 120 h, dose level High, time 5 day

CCCCC1=NC2(CCCC2)C(=O)N1Cc1ccc(-c2ccccc2-c2nnn[nH]2)cc1 [IRBESARTAN]
BASOPHIL [1]: 0.17% | EOSINOPHIL [1]: 0.83% | ERYTHROCYTE COUNT [1]: 7.2 x10E6/uL | HEMATOCRIT [1]: 43.13% | HEMOGLOBIN [1]: 14.63 G/DL | LEUKOCYTE COUNT [1]: 9.05 x10E3/uL | LYMPHOCYTE [1]: 75.17% | MEAN CORPUSCULAR HEMOGLOBIN [1]: 20.35 pg | MEAN CORPUSCULAR HEMOGLOBIN CONCENTRATION [1]: 33.95 G/DL | MEAN CORPUSCULAR VOLUME [1]: 59.93 fL | MONOCYTE [1]: 2.83% | NEUTROPHIL [1]: 21.17% | PLATELET COUNT [1]: 1093.17 x10E3/uL | ALANINE AMINOTRANSFERASE [1]: 49.17 u/L | ALBUMIN [1]: 4.33 G/DL | ALKALINE PHOSPHATASE [1]: 366.5 u/L | ASPARTATE AMINOTRANSFERASE [1]: 86.33 u/L | BLOOD UREA NITROGEN [1]: 17 mg/dL | CARBON DIOXIDE [1]: 24.17 mmol/L | CHLORIDE [1]: 102.83 MEQ/L | CHOLESTEROL [1]: 78.33 mg/dL | CREATINE PHOSPHOKINASE [1]: 320.83 u/L | CREATININE [1]: 0.3 mg/dL | GLUCOSE [1]: 140.83 mg/dL | LACTATE DEHYDROGENASE [1]: 210 u/L | LIPASE [1]: 9.33 u/L | PHOSPHORUS [1]: 9.12 mg/dL | POTASSIUM [1]: 5.65 MEQ/L | SODIUM [1]: 144.17 MEQ/L | TOTAL BILIRUBIN [1]: 0.1 mg/dL | TOTAL PROTEIN [1]: 6.3 G/DL | URIC ACID [1]: 1.03 mg/dL | BASOPHIL [2]: 0.17% | EOSINOPHIL [2]: 1% | ERYTHROCYTE COUNT [2]: 7.02 x10E6/uL | HEMATOCRIT [2]: 43.12% | HEMOGLOBIN [2]: 14.18 G/DL | LEUKOCYTE COUNT [2]: 9.63 x10E3/uL | LYMPHOCYTE [2]: 72% | MEAN CORPUSCULAR HEMOGLOBIN [2]: 20.25 pg | MEAN CORPUSCULAR HEMOGLOBIN CONCENTRATION [2]: 32.95 G/DL | MEAN CORPUSCULAR VOLUME [2]: 61.43 fL | MONOCYTE [2]: 2.67% | NEUTROPHIL [2]: 24.5% | PLATELET COUNT [2]: 1028.5 x10E3/uL | ALANINE AMINOTRANSFERASE [2]: 42.5 u/L | ALBUMIN [2]: 4.2 G/DL | ALKALINE PHOSPHATASE [2]: 300.33 u/L | ASPARTATE AMINOTRANSFERASE [2]: 87.67 u/L | BLOOD UREA NITROGEN [2]: 17 mg/dL | CARBON DIOXIDE [2]: 24.33 mmol/L | CHLORIDE [2]: 99 MEQ/L | CHOLESTEROL [2]: 70.67 mg/dL | CREATINE PHOSPHOKINASE [2]: 891.33 u/L | CREATININE [2]: 0.3 mg/dL | GLUCOSE [2]: 139.67 mg/dL | LACTATE DEHYDROGENASE [2]: 289.83 u/L | LIPASE [2]: 8.83 u/L | PHOSPHORUS [2]: 9.5 mg/dL | POTASSIUM [2]: 5.55 MEQ/L | SODIUM [2]: 139 MEQ/L | TOTAL BILIRUBIN [2]: 0.0833 mg/dL | TOTAL PROTEIN [2]: 6.1 G/DL | URIC ACID [2]: 0.98 mg/dL | BASOPHIL [3]: 0.33% | EOSINOPHIL [3]: 1% | ERYTHROCYTE COUNT [3]: 7.31 x10E6/uL | HEMATOCRIT [3]: 43.7% | HEMOGLOBIN [3]: 14.73 G/DL | LEUKOCYTE COUNT [3]: 11.5 x10E3/uL | LYMPHOCYTE [3]: 81.67% | MEAN CORPUSCULAR HEMOGLOBIN [3]: 20.17 pg | MEAN CORPUSCULAR HEMOGLOBIN CONCENTRATION [3]: 33.73 G/DL | MEAN CORPUSCULAR VOLUME [3]: 59.8 fL | MONOCYTE [3]: 2% | NEUTROPHIL [3]: 14.67% | PLATELET COUNT [3]: 1173.33 x10E3/uL | ALANINE AMINOTRANSFERASE [3]: 46 u/L | ALBUMIN [3]: 4.67 G/DL | ALKALINE PHOSPHATASE [3]: 305.33 u/L | ASPARTATE AMINOTRANSFERASE [3]: 75 u/L | BLOOD UREA NITROGEN [3]: 17.67 mg/dL | CARBON DIOXIDE [3]: 28.33 mmol/L | CHLORIDE [3]: 103.33 MEQ/L | CHOLESTEROL [3]: 73 mg/dL | CREATINE PHOSPHOKINASE [3]: 219 u/L | CREATININE [3]: 0.3 mg/dL | GLUCOSE [3]: 133.33 mg/dL | LACTATE DEHYDROGENASE [3]: 300.67 u/L | LIPASE [3]: 9.33 u/L | PHOSPHORUS [3]: 9.03 mg/dL | POTASSIUM [3]: 5.67 MEQ/L | SODIUM [3]: 146 MEQ/L | TOTAL BILIRUBIN [3]: 0.1 mg/dL | TOTAL PROTEIN [3]: 6.67 G/DL | URIC ACID [3]: 1.23 mg/dL | BASOPHIL [4]: 0.33% | EOSINOPHIL [4]: 1% | ERYTHROCYTE COUNT [4]: 7.01 x10E6/uL | HEMATOCRIT [4]: 42.37% | HEMOGLOBIN [4]: 14.23 G/DL | LEUKOCYTE COUNT [4]: 11.4 x10E3/uL | LYMPHOCYTE [4]: 79.67% | MEAN CORPUSCULAR HEMOGLOBIN [4]: 20.33 pg | MEAN CORPUSCULAR HEMOGLOBIN CONCENTRATION [4]: 33.57 G/DL | MEAN CORPUSCULAR VOLUME [4]: 60.47 fL | MONOCYTE [4]: 2% | NEUTROPHIL [4]: 17.33% | PLATELET COUNT [4]: 1226.33 x10E3/uL | ALANINE AMINOTRANSFERASE [4]: 44.67 u/L | ALBUMIN [4]: 4.23 G/DL | ALKALINE PHOSPHATASE [4]: 299.5 u/L | ASPARTATE AMINOTRANSFERASE [4]: 74.33 u/L | BLOOD UREA NITROGEN [4]: 18.67 mg/dL | CARBON DIOXIDE [4]: 20 mmol/L | CHLORIDE [4]: 98.33 MEQ/L | CHOLESTEROL [4]: 74 mg/dL | CREATINE PHOSPHOKINASE [4]: 216.33 u/L | CREATININE [4]: 0.27 mg/dL | GLUCOSE [4]: 136 mg/dL | LACTATE DEHYDROGENASE [4]: 197.33 u/L | LIPASE [4]: 8.67 u/L | PHOSPHORUS [4]: 7.83 mg/dL | POTASSIUM [4]: 5.6 MEQ/L | SODIUM [4]: 138 MEQ/L | TOTAL BILIRUBIN [4]: 0.1 mg/dL | TOTAL PROTEIN [4]: 6.17 G/DL | URIC ACID [4]: 0.93 mg/dL
